Experimental data: the Kinase Knowledgebase extract (Sharma et al. 2016)

What follows are compounds tested against PIK3CG (UniProt P48736) (assay: Inhibition of PIK3CG Kinase Activity).
Chain of PIK3CG (P48736 whole entry, looked up): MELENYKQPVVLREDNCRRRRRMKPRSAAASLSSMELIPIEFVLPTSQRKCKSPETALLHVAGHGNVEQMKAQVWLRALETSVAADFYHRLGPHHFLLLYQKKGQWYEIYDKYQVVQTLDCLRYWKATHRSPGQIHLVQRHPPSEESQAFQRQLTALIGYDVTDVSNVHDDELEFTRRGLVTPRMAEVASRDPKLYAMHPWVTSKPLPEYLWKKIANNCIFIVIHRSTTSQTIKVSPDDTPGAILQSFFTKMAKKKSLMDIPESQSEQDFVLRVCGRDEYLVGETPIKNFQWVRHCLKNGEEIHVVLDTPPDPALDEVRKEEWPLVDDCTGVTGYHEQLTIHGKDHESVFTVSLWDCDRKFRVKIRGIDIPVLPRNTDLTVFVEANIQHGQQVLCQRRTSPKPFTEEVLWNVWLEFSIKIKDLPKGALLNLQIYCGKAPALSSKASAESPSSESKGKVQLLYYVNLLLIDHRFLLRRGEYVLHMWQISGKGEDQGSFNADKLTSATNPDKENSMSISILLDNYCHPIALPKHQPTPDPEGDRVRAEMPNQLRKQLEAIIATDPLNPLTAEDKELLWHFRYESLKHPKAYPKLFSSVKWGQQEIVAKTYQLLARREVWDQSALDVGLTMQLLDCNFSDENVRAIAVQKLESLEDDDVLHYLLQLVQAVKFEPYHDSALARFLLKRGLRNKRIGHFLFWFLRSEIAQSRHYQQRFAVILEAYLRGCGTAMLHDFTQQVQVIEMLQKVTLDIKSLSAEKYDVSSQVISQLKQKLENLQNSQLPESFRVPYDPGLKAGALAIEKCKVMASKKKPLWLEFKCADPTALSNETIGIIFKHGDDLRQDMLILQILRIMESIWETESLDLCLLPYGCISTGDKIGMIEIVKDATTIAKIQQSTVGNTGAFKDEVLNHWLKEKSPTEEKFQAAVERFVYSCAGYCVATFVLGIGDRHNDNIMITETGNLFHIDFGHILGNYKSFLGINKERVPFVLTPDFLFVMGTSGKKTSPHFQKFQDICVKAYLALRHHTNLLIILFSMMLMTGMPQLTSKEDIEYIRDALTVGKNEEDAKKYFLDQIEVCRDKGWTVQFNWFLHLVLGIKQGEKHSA
In the case of `COc1cc(NC(=O)N2CCCOc3ccc(/C=C4\SC(=S)NC4=O)cc32)cc(OC)c1`, the IC50 is reported as 1320 nM. `O=C1NC(=S)S/C1=C\c1ccc2c(c1)N(C(=O)C1CCCC1)CCCO2` was tested, and the IC50 was 1000 nM. `O=C1NC(=S)S/C1=C\c1ccc2c(c1)N(C(=O)COCc1ccccc1)CCCO2` gave an IC50 of 1650 nM. `O=C1NC(=S)S/C1=C\c1ccc2c(c1)N(C(=O)/C=C/c1cccc(C(F)(F)F)c1)CCCO2` showed an IC50 of 4010 nM. With `Cc1cc(C)cc(CN2CCOc3ccc(/C=C4\SC(=S)NC4=O)cc32)c1` the IC50 was 650 nM. `Cc1oc(C(C)(C)C)cc1C(=O)N1CCCOc2ccc(/C=C3\SC(=S)NC3=O)cc21` showed an IC50 of 4600 nM. `O=C1NC(=S)S/C1=C\c1ccc2c(c1)N(C(=O)C1CC1)CCCO2` gave an IC50 of 115 nM. With `Cc1ccc(NC(=O)N2CCCOc3ccc(/C=C4\SC(=S)NC4=O)cc32)cc1` the IC50 was 3500 nM. `O=C1NC(=S)S/C1=C\c1ccc2c(c1)N(C(=O)Cc1cccs1)CCCO2` gave an IC50 of 1140 nM. With `CC1(C)C2CCC1(CS(=O)(=O)N1CCOc3ccc(/C=C4\SC(=S)NC4=O)cc31)CC2` the IC50 was 330 nM. `CC(=O)Oc1ccc(OC(=O)N2CCCOc3ccc(/C=C4\SC(=S)NC4=O)cc32)cc1` was tested, and the IC50 was 640 nM. For `O=C1NC(=S)S/C1=C\c1ccc2c(c1)N(C(=O)c1ccc(Cl)c(Cl)c1)CCCO2`, the IC50 was 1380 nM. In the case of `Cc1ccc(OC(=O)N2CCCOc3ccc(/C=C4\SC(=S)NC4=O)cc32)cc1`, the IC50 is reported as 704 nM. For `CN1CCN(Cc2ccccc2C(=O)N2CCOc3ccc(/C=C4\SC(=S)NC4=O)cc32)CC1`, the IC50 was 115 nM. Compound `COc1cc(NC(=O)N2CCOc3ccc(/C=C4\SC(=S)NC4=O)cc32)cc(OC)c1` has an IC50 of 14 nM. In the case of `O=C1NC(=S)S/C1=C\c1ccc2c(c1)N(C(=O)/C=C/c1ccccc1)CCCO2`, the IC50 is reported as 1520 nM. Compound `N#Cc1ccc(C(=O)N2CCCOc3ccc(/C=C4\SC(=S)NC4=O)cc32)cc1` has an IC50 of 2610 nM. For `O=C1NC(=S)S/C1=C\c1ccc2c(c1)N(C(=O)c1ccc3occc3c1)CCCO2`, the IC50 was 1530 nM. `CCCCCCc1ccc(C(=O)N2CCCOc3ccc(/C=C4\SC(=S)NC4=O)cc32)cc1` showed an IC50 of 4200 nM. `O=C1NC(=S)S/C1=C\c1ccc2c(c1)N(C(=O)Oc1ccccc1)CCCO2` gave an IC50 of 424 nM. Work on `O=C1NC(=S)S/C1=C\c1ccc2c(c1)N(C(=O)c1ccco1)CCO2` yielded an IC50 of 65 nM. With `O=C1NC(=S)S/C1=C\c1ccc2c(c1)N(C(=O)c1ccc3c(c1)C(=O)c1ccccc1C3=O)CCCO2` the IC50 was 4990 nM.
